Experimental data from patent US20130164337A1, “ANTIMICROBIAL ACTION PHARMACEUTICAL COMPOSITION FOR PARENTERAL ADMINISTRATION AND ITS PRODUCTION PROCESS” (priority 2010, published 2013).

How the values were obtained:
Test in all cases: Experimental sepsis model in mice, survival on the 7th day
Type in all cases: in vivo
[1] = tested on: Escherichia coli (ATCC 25922 F-50); details: Escherichia coli 8×10^8 CFU/mouse; 100 mg/kg intravenous daily during 3 days; hybrid mice (CBA×C57Black/6)CBF1
Text: (§1) To determine therapeutic efficiency of betalactam and their pharmaceutical compositions including BHSiO2, we used experimental sepsis models and a statistical processing method of the received data (χ^2) according to [22, 23].
(§2) Microorganisms: Staphylococcus aureus (ATCC ? 25923 F-49), Escherichia coli (ATCC ? 25922 F-50), Pseudomonas aeruginosa (ATCC ? 27853 F-51).
(§3) Animals: for the experiments we used hybrid mice (CBA×C57Black/6)CBF1 according to the “Regulations for test animals use” (USSR Ministry of health order supplement ? 755 from 12.08. 1977).
(§4) The mice have been injected 0.8 ml of Pseudomonas aeruginosa daily culture suspension with a dosage 5×10^8 CFU/mouse or Staphylococcus aureus daily culture suspension with a dosage of 10^10 CFU/mouse or Escherichia coli daily culture suspension with a dosage of 8×10^8 CFU/mouse.
(§5) The control group has been injected with 0.8 ml of normal saline solution (0.9% sodium chloride solution). In a day after being infected the test mice have been daily (during 3 days) intravenous injected with 100 mg/kg of antibiotics or different pharmaceutical compositions (antibiotic/BHSiO2) watered down with 0.25 ml of normal saline solution. The control group of mice has been injected using the same scheme with normal saline solution […].
(§6) Antibacterial therapy efficiency was evaluated basing on the quantity of the surviving animals on the 7th day after being infected.
(§7) The obtained data shown in Table ? 3 reflect the results of 3 independent experiments (for each preparation research were used not less than 30 test animals in total).

[2] = tested on: Pseudomonas aeruginosa (ATCC 27853 F-51); details: Pseudomonas aeruginosa 5×10^8 CFU/mouse; 100 mg/kg intravenous daily during 3 days; hybrid mice (CBA×C57Black/6)CBF1
Text: as §1, §2, §3, §4, §5, §6, §7

[3] = tested on: Staphylococcus aureus (ATCC 25923 F-49); details: Staphylococcus aureus 10^10 CFU/mouse; 100 mg/kg intravenous daily during 3 days; hybrid mice (CBA×C57Black/6)CBF1
Text: as §1, §2, §3, §4, §5, §6, §7

SMILES | Mice survival rate on the 7th day of infection [1] | Mice survival rate on the 7th day of infection [2] | Mice survival rate on the 7th day of infection [3]
C[C@H]1[C@H](NC(=O)/C(=N\OC(C)(C)C(=O)O)c2csc(N)n2)C(=O)N1S(=O)(=O)O [Aztreonam] | 77.5% (31/40) | 74.4% (32/43) | 
CC1(C)S[C@@H]2[C@H](NC(=O)C(C(=O)O)c3ccccc3)C(=O)N2[C@H]1C(=O)O (stereo partly drawn) [Carbenicillin] | 43.3% (13/30) | 43.3% (13/30) | 46.7% (14/30)
Cc1nnc(SCC2=C(C(=O)O)N3C(=O)[C@@H](NC(=O)Cn4cnnn4)[C@H]3SC2)s1 [Cefazolin] |  |  | 37.5% (12/32)
CO/N=C(\C(=O)N[C@@H]1C(=O)N2C(C(=O)[O-])=C(C[N+]3(C)CCCC3)CS[C@H]12)c1csc(N)n1 [Cefepime] | 43.7% (14/32) | 46.7% (14/30) | 46.7% (14/30)
CCN1CCN(C(=O)N[C@@H](C(=O)N[C@@H]2C(=O)N3C(C(=O)O)=C(CSc4nnnn4C)CS[C@H]23)c2ccc(O)cc2)C(=O)C1=O [Cefoperazone] | 45.2% (14/31) | 40.0% (12/30) | 
CO/N=C(\C(=O)N[C@@H]1C(=O)N2C(C(=O)O)=C(COC(C)=O)CS[C@H]12)c1csc(N)n1 [Cefotaxime] | 43.3% (13/30) |  | 40.0% (12/30)
CO[C@@]1(NC(=O)Cc2cccs2)C(=O)N2C(C(=O)O)=C(COC(N)=O)CS[C@@H]21 [Cefoxitin] | 46.7% (14/30) |  | 35.2% (15/34)
CC(C)(O/N=C(\C(=O)N[C@@H]1C(=O)N2C(C(=O)[O-])=C(C[n+]3ccccc3)CS[C@H]12)c1csc(N)n1)C(=O)O [Ceftazidime] | 38.7% (15/31) | 43.3% (13/30) | 
CO/N=C(\C(=O)N[C@@H]1C(=O)N2C(C(=O)O)=C(CSc3nc(=O)c(=O)[nH]n3C)CS[C@H]12)c1csc(N)n1 [Ceftriaxone] | 41.9% (13/31) |  | 46.7% (14/30)
CO/N=C(\C(=O)N[C@@H]1C(=O)N2C(C(=O)O)=C(COC(N)=O)CS[C@H]12)c1ccco1 [Cefuroxime] | 43.7% (14/32) |  | 40.0% (14/35)
C[C@@H](O)[C@H]1C(=O)N2C(C(=O)O)=C(S[C@@H]3CN[C@H](C(=O)N(C)C)C3)[C@H](C)[C@H]12 [Meropenem] | 78.0% (32/41) | 73.8% (31/42) | 73.3% (22/30)
